{"source": "paper PMC5405074", "about": "“Receptor-Mediated Melanoma Targeting with Radiolabeled α-Melanocyte-Stimulating Hormone: Relevance of the Net Charge of the Ligand” (Frontiers in Endocrinology, 2017)", "key": {"[1]": {"assay": "Biodistribution of ^111In-labeled peptides in B16-F1 melanoma-bearing mice", "format": "in vivo, mouse (B6D2F1)", "conditions": "female, iv, total radioactivity, ^111In-labeled peptide, 185 kBq i.v., mean ± SEM of three experiments, n = 5 animals each", "summary_of_the_method": "(§1)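 B16-F1 cells (about 5 × 10^5) grown s.c. in female B6D2F1 mice; 7 days later 185 kBq ^111In-labeled peptide injected i.v. Tissues collected at 4, 24 and 48 h and γ-counted, uptake given as %ID/g (mean ± SEM); non-specific uptake from co-injection of 50 µg α-MSH. Urine metabolites analysed by RP-HPLC/γ-detection.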"}, "[2]": {"test_system": "B16-F1 tumor-bearing mice", "assay": "Biodistribution of ^111In-labeled peptides in B16-F1 melanoma-bearing mice", "format": "in vivo, mouse (B6D2F1)", "conditions": "in vivo", "summary_of_the_method": "as §1"}, "MC1R (HBL cells)": {"target": "T1, MC1R (HBL cells) (Homo sapiens, UniProt Q01726)", "T1 construct": "endogenous in cells; host or cells: human HBL melanoma cell line", "T1 sequence (Q01726 whole entry)": "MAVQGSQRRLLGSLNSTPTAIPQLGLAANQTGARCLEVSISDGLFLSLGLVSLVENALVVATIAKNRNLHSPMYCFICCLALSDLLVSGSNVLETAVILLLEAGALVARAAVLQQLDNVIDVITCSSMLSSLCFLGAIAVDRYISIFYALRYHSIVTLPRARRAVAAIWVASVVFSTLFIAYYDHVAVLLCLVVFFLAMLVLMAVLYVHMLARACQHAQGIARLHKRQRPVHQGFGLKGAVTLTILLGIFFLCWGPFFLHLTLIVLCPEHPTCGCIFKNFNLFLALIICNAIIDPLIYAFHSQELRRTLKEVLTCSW", "assay": "Competition binding assay with [^125I]-NDP-MSH, human HBL melanoma cells", "conditions": "HBL cells", "protocol": "(§2) Triplicates of 100-µL volumes of B16-F1 or HBL cell suspensions adjusted to 4 × 10^6/mL were incubated in 96-well U-bottom microplates (Falcon 3077). The binding medium consisted of MEM with Earle’s salts, 0.2% BSA, and 0.3 mM 1,10-phenanthroline. This binding medium was called mouse binding medium (MBM). Triplicates of competitor peptide solution (50 µL) yielding final concentrations ranging from 1 × 10^−6 to 1 × 10^−12 M were added. [^125I]NDP-MSH (50,000 cpm) in 50 µL was finally added to each well. The plates were incubated at 15°C for 3 h for B16-F1 cells and at 37°C for 2 h for HBL cells. The incubation was stopped by covering the plates with ice for 10 min. A cell harvester was used to collect cell-bound radioactivity on filters (Packard Unifilter-96 GF/B). The collected radioactivity was counted on a TopCount scintillation counter (Packard) after addition of 50 µL Microscint-20 scintillation cocktail (Perkin Elmer). The IC50 values were calculated with the Prism 6 software (GraphPad Software Inc., San Diego CA, USA).\n(§3) The binding affinity of the peptides to MC1R was assessed by competition binding assays using [^125I]-NDP-MSH as radioligand and both murine B16-F1 and human HBL cells."}, "MC1R (B16-F1 cells)": {"target": "T2, MC1R (B16-F1 cells) (Mus musculus, UniProt Q01727)", "T2 construct": "endogenous in cells; host or cells: mouse B16-F1 melanoma cells", "T2 sequence (Q01727 whole entry)": "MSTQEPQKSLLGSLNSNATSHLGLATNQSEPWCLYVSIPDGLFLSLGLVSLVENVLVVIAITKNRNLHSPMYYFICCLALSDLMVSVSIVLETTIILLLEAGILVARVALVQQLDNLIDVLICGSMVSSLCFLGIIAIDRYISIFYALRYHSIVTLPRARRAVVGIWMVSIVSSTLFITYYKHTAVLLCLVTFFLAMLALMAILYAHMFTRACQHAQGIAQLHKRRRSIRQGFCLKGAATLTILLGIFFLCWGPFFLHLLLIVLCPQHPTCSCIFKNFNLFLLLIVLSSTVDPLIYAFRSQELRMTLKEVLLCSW", "assay": "Competition binding assay with [^125I]-NDP-MSH, mouse B16-F1 melanoma cells", "conditions": "B16-F1 cells", "protocol": "as §2, §3"}, "B16-F1 cells": {"test_system": "B16-F1 cells", "assay": "Internalization by cultured B16-F1 cells", "format": "cell-based, mouse", "conditions": "37°C, 0.5, 2 and 3.5 h, 74 kBq radioligand", "protocol": "B16-F1 cells were seeded in six-well plates and incubated overnight in MEM at 37°C. For the internalization experiments, MEM was replaced by 1 mL MBM (see above) as internalization buffer. After a 1-h incubation at 37°C, 74 kBq of radioligand (^111In-labeled peptides) was added, and the plates were incubated for different time periods. Non-specific internalization was determined by addition of 50 µL of a 1 µM α-MSH solution to the incubation mixture. After the desired incubation times, the cells were extensively washed with MBM kept at 37°C to remove excess radioligand. Incubation in 2 mL ice-cold acid buffer (acetate-buffered Hank’s balanced salt solution, pH 5) for 10 min allowed dissociation of surface-bound ligand. After collection of the acid buffer fraction, the cells were rinsed once with cold MBM, and the washings were pooled with the acid buffer fraction. The cells were washed again with MBM kept at 37°C, lysed in a 1% Triton X-100 solution, and finally transferred to tubes for quantification. The radioactivity of all collected fractions was measured in a γ-counter. A counting plate underwent the same treatment as the plate incubated for the longest time, but its cells were detached with 0.02% EDTA in PBS instead of being lysed with the Triton X-100 solution. Cells from three wells were collected, counted, and thus allowed for normalization of the results obtained. Results were expressed as percent of the added dose per million cells.\nFigure 3 Determination of internalization of [^111In] DOTA-NAP-D-Asp-D-Asp (A) and [^111In]DOTA-Phospho-MSH2-9 (B) by cultured B16-F1 cells exposed to the peptides at 37°C for 0.5, 2, and 3.5 h. Surface-bound radioligand was released by an acid buffer wash, and internalized radioligand was determined by lysing cells with detergent. Results are expressed in percent of the added dose per million cells."}, "[3]": {"conditions": "B6D2F1 (C57BL/6 × DBA/2F1 hybrids), mouse, blood, read-out: Blood uptake"}, "[4]": {"conditions": "B6D2F1 (C57BL/6 × DBA/2F1 hybrids), mouse, muscle, read-out: Muscle uptake"}, "[5]": {"conditions": "B6D2F1 (C57BL/6 × DBA/2F1 hybrids), mouse, skin, read-out: Skin uptake"}, "[6]": {"conditions": "B6D2F1 (C57BL/6 × DBA/2F1 hybrids), mouse, tumor, read-out: Tumor uptake"}, "[7]": {"conditions": "B6D2F1, mouse, bone, read-out: Bone uptake"}, "[8]": {"conditions": "B6D2F1, mouse, heart, read-out: Heart uptake"}, "[9]": {"conditions": "B6D2F1, mouse, kidney, read-out: Kidney uptake"}, "[10]": {"conditions": "B6D2F1, mouse, liver, read-out: Liver uptake"}, "[11]": {"conditions": "B6D2F1, mouse, lung, read-out: Lung uptake"}, "[12]": {"conditions": "B6D2F1, mouse, pancreas, read-out: Pancreas uptake"}, "[13]": {"conditions": "B6D2F1, mouse, small intestines, read-out: Small intestines uptake"}, "[14]": {"conditions": "B6D2F1, mouse, spleen, read-out: Spleen uptake"}, "[15]": {"conditions": "B6D2F1, mouse, stomach, read-out: Stomach uptake"}}, "note": "Like-named read-outs stand apart in the source and are kept apart here. Non-standard residues stand in square brackets, D forms with d. Residues, ends and D or L forms follow the SMILES beside them. *: point of attachment. DOTA = O=C(O)CN1CCN(CC(=O)O)CCN(CC(=O)*)CCN(CC(=O)O)CC1; Nle = CCCC[C@H](N)C(=O)O"}
{"smiles": "CCCC[C@H](NC(C)=O)C(=O)N[C@@H](CC(=O)O)C(=O)N[C@@H](Cc1c[nH]cn1)C(=O)N[C@H](Cc1ccccc1)C(=O)N[C@@H](CCCNC(=N)N)C(=O)N[C@@H](Cc1c[nH]c2ccccc12)C(=O)NCC(=O)N[C@@H](CCCCNC(=O)CN1CCN(CC(=O)O)CCN(CC(=O)O)CCN(CC(=O)O)CC1)C(=O)N[C@H](CC(=O)O)C(=O)N[C@H](CC(=O)O)C(=O)O", "note": "[DOTA-NAP-D-Asp-D-Asp, Ac-Nle-Asp-His-D-Phe-Arg-Trp-Gly-Lys(DOTA)-D-Asp-D-Asp-OH] (Ac-[Nle]DH[dF]RWGK(DOTA)[dD][dD]-OH)", "values": [{"measurement": "tissue uptake at 4 h", "setting": "[1]; [3]", "value": 0.01, "unit": "%ID/g"}, {"measurement": "tissue uptake at 24 h", "setting": "[1]; [3]", "value": 0.01, "unit": "%ID/g"}, {"measurement": "tissue uptake at 48 h", "setting": "[1]; [3]", "value": 0.01, "unit": "%ID/g"}, {"measurement": "tissue uptake at 48 h", "setting": "[1]; B6D2F1 (C57BL/6 × DBA/2F1 hybrids), mouse, bone, read-out: Bone uptake", "value": "0.07 ± 0.01", "unit": "%ID/g"}, {"measurement": "tissue uptake at 4 h", "setting": "[1]; [4]", "value": 0.02, "unit": "%ID/g"}, {"measurement": "tissue uptake at 24 h", "setting": "[1]; [4]", "value": 0.02, "unit": "%ID/g"}, {"measurement": "tissue uptake at 48 h", "setting": "[1]; [4]", "value": 0.03, "unit": "%ID/g"}, {"measurement": "tissue uptake at 4 h", "setting": "[1]; [5]", "value": "0.06 ± 0.01", "unit": "%ID/g"}, {"measurement": "tissue uptake at 24 h", "setting": "[1]; [5]", "value": 0.06, "unit": "%ID/g"}, {"measurement": "tissue uptake at 48 h", "setting": "[1]; [5]", "value": 0.04, "unit": "%ID/g"}, {"measurement": "tissue uptake at 24 h", "setting": "[1]; [6]", "value": "0.63 ± 0.03", "unit": "%ID/g"}, {"measurement": "tissue uptake at 48 h", "setting": "[1]; [6]", "value": "0.23 ± 0.02", "unit": "%ID/g"}, {"measurement": "tissue uptake at 4 h", "setting": "[1]; [7]", "value": "0.07 ± 0.01", "unit": "%ID/g"}, {"measurement": "tissue uptake at 24 h", "setting": "[1]; [7]", "value": "0.06 ± 0.01", "unit": "%ID/g"}, {"measurement": "tissue uptake at 4 h", "setting": "[1]; [8]", "value": 0.03, "unit": "%ID/g"}, {"measurement": "tissue uptake at 24 h", "setting": "[1]; [8]", "value": 0.03, "unit": "%ID/g"}, {"measurement": "tissue uptake at 48 h", "setting": "[1]; [8]", "value": 0.03, "unit": "%ID/g"}, {"measurement": "tissue uptake at 24 h", "setting": "[1]; [9]", "value": "4.09 ± 0.16", "unit": "%ID/g"}, {"measurement": "tissue uptake at 48 h", "setting": "[1]; [9]", "value": "2.02 ± 0.08", "unit": "%ID/g"}, {"measurement": "tissue uptake at 4 h", "setting": "[1]; [10]", "value": 0.1, "unit": "%ID/g"}, {"measurement": "tissue uptake at 24 h", "setting": "[1]; [10]", "value": 0.09, "unit": "%ID/g"}, {"measurement": "tissue uptake at 48 h", "setting": "[1]; [10]", "value": 0.07, "unit": "%ID/g"}, {"measurement": "tissue uptake at 4 h", "setting": "[1]; [11]", "value": 0.06, "unit": "%ID/g"}, {"measurement": "tissue uptake at 24 h", "setting": "[1]; [11]", "value": 0.04, "unit": "%ID/g"}, {"measurement": "tissue uptake at 48 h", "setting": "[1]; [11]", "value": 0.03, "unit": "%ID/g"}, {"measurement": "tissue uptake at 4 h", "setting": "[1]; [12]", "value": 0.03, "unit": "%ID/g"}, {"measurement": "tissue uptake at 24 h", "setting": "[1]; [12]", "value": 0.02, "unit": "%ID/g"}, {"measurement": "tissue uptake at 48 h", "setting": "[1]; [12]", "value": 0.03, "unit": "%ID/g"}, {"measurement": "tissue uptake at 4 h", "setting": "[1]; [13]", "value": "0.05 ± 0.01", "unit": "%ID/g"}, {"measurement": "tissue uptake at 24 h", "setting": "[1]; [13]", "value": "0.04 ± 0.01", "unit": "%ID/g"}, {"measurement": "tissue uptake at 48 h", "setting": "[1]; [13]", "value": 0.03, "unit": "%ID/g"}, {"measurement": "tissue uptake at 4 h", "setting": "[1]; [14]", "value": 0.07, "unit": "%ID/g"}, {"measurement": "tissue uptake at 24 h", "setting": "[1]; [14]", "value": 0.07, "unit": "%ID/g"}, {"measurement": "tissue uptake at 48 h", "setting": "[1]; [14]", "value": 0.07, "unit": "%ID/g"}, {"measurement": "tissue uptake at 4 h", "setting": "[1]; [15]", "value": 0.11, "unit": "%ID/g"}, {"measurement": "tissue uptake at 24 h", "setting": "[1]; [15]", "value": 0.03, "unit": "%ID/g"}, {"measurement": "tissue uptake at 48 h", "setting": "[1]; [15]", "value": 0.02, "unit": "%ID/g"}, {"measurement": "Kidney uptake/retention compared with reference (in words)", "setting": "[2]", "value": "markedly increased"}, {"measurement": "Tumor uptake lower than that of reference", "setting": "[2]; melanoma tumors", "value": "~ 4 fold"}, {"measurement": "Reduction of MC1R affinity compared to DOTA-NAP-amide", "setting": "MC1R (HBL cells)", "value": "~ 10 fold"}, {"measurement": "Reduction of MC1R affinity compared to DOTA-NAP-amide", "setting": "MC1R (B16-F1 cells)", "value": "~ 10 fold"}, {"measurement": "Internalization profile (in words)", "setting": "B16-F1 cells", "value": "rapid internalization"}]}
